The record followed here is article PMC9822400, “The Lipophilic Purine Nucleoside—Tdp1 Inhibitor—Enhances DNA Damage Induced by Topotecan In Vitro and Potentiates the Antitumor Effect of Topotecan In Vivo” (Molecules, 2022).

Molecules are shown by their SMILES. Entries after “also recorded” stand apart in the source; their conditions may differ.

For the data set, the system named is HeLa cells. The data set is described as follows: Alkaline Comet assay, accumulation of DNA damage. The conditions noted are these: for Amount of DNA damage (% DNA in tail) in combination with Tpc compared to only Tpc: 10 μM Tpc + compound; for DNA in tail: 1 h; for Effect of the compound alone on the integrity of DNA: compound alone in concentrations up to 1 mM, compared to untreated or 1% DMSO. In kind it is cell-based. The source says: We studied the effect of Tdp1 inhibitors 5f and 6d on the accumulation of DNA damage by single-cell gel electrophoresis (Comet assay). […] This method has proven to be a simple, fast, and a quite sensitive way to detect DNA damage at the level of a single cell, allowing one to analyze almost any eukaryotic cell culture. Several analysis options allow one to visualize various types of DNA damage: single- and double-stranded breaks and alkaline-labile sites. This allows this method to be widely used in fundamental studies of DNA damage and repair and in testing the genotoxicity of new chemical and pharmaceutical drugs in vitro and in vivo [51, 52]. To study potential drugs, the alkaline version of the method (pH > 13) proposed by Singh and co-authors is widely used. This method allows the detection of all types of DNA damage with high sensitivity. In cells with a large amount of DNA damage, the structural organization and integrity of DNA are disrupted, which leads to its relaxation and/or fragmentation. As a result, cellular DNA in an electric field gives the observed objects the appearance of a “comet”.
Before studying the effect of Tdp1 inhibitors on the accumulation of DNA damage, it was necessary to find out how long the generation of DNA damage by Tpc and their repair take place in HeLa cells. To do this, cell culture was treated with Tpc at 1, 10, and 100 μM concentrations for 30 min, 1, 2, and 3 h and the level of damage to individual cells was monitored by Comet assay. It was shown that Tpc caused the greatest amount of damage after 30 minutes’ treatment. After this time, the repair systems began to correct these lesions and as a result, after 3 h most of them have been eliminated (Figure S9). […] The level of DNA damage at this point was enough to be detected, the data were reproducible, and can be evaluated by the Comet assay. The effect could be enhanced by the tested compounds without leading to cell death. It was important for us to see this enhancement in the presence of our compounds.
HeLa cell culture was grown in a 24-well plate to a concentration of 0.05 million/mL, then treated with the tested compounds and incubated for 1 h. To obtain a cell suspension, the cells were treated with trypsin (30 µL in each well for 5 min at 37 °C), and then 200 µL of PBS + 10% FBS were added to each well.
The resulting cell suspension (50 µL) was mixed with 250 µL of a 1% solution of molten low melting agarose (CertifiedTM LMAgarose; BIO-RAD), 250 µL of this mixture was transferred to the slides pre-coated with a 1% normal melting agarose (Agarose; Helicon), and left for several minutes at 4 °C to solidify. The resulting slides were incubated in a lysing solution (2.5 M NaCl, 100 mM EDTA, 10 mM Tris base, 1% Triton, 5% DMSO, pH 10.0) for an hour at 4 °C. Then the slides were immersed in an electrophoretic buffer (300 mM NaOH, 1 mM EDTA, pH > 13) for 45 min at 4 °C. Electrophoresis was performed at 20 V, 450 mA for 10 min while cooling on ice. After that, the slides were immersed 2 times for 5 min in 0.4 M Tris-HCl pH 7.5 solution for neutralization, washed twice with cold water, and stained with SYBR Green I (excitation maximum at 497 nm, emission maximum at 520 nm; Thermo Fisher Scientific KK).
The images were obtained using a CELENA © S digital microscope (Logos Biosystems, Inc., Annandale, VA, USA) and analyzed with Comet analysis software (Trevigen, Inc., Gaithersburg, MD, USA. In all experiments, 2 slides were evaluated for each sample by counting at least 200 cells on the glass. As a parameter for measuring the level of DNA damage, the median value of the percentage of DNA in the tail was chosen (% Tail DNA = 100 × the intensity of DNA fluorescence in the tail of the comet/the intensity of fluorescence of the total DNA of the comet).

Where [1] appears, read: compound 10 μM + Topotecan 10 μM.
Setting [2] is: compound 50 μM + Topotecan 10 μM.
[3] abbreviates: compound 200 μM + Topotecan 10 μM.

With `O[C@@H]1[C@H](O)[C@@H](COC(c2ccccc2)(c2ccccc2)c2ccccc2)O[C@H]1n1cnc2c(NC(c3ccccc3)(c3ccccc3)c3ccccc3)ncnc21` [compound 5f], the “Amount of DNA damage (% DNA in tail) in combination with Tpc compared to only Tpc” value is recorded as “did not significantly differ” and the “Effect of the compound alone on the integrity of DNA” value is “did not affect the integrity of DNA”. Further, under setting [1], the DNA in tail was determined as 37±3%. Under setting [2], the DNA in tail is 40±3%. Also, the DNA in tail under setting [3] came to 42±4%.

As for `O=C(OC[C@H]1O[C@@H](n2cnc3c(Cl)nc(Cl)nc32)[C@H](OC(=O)c2ccccc2)[C@@H]1OC(=O)c1ccccc1)c1ccccc1` [compound 6d, 2,6-dichloro-9-(2,3,5-tri-O-benzoyl-β-D-ribofuranosyl)purine], the “Amount of DNA damage (% DNA in tail) in combination with Tpc compared to only Tpc” value is reported as “increased the amount of DNA damage” and the “Effect of the compound alone on the integrity of DNA” value is listed as “did not affect the integrity of DNA; also recorded: does not cause DNA damage by itself”. Further, the “Reduction of the topotecan dose required to produce a serious level of DNA damage” value (Tpc 1 μM + 6d 5 μM similar to only Tpc 10 μM) stood at 10 times. The DNA in tail under setting [1] was 50±2%. For the same compound, the DNA in tail under setting [2] is listed as 65±6%. In addition, the DNA in tail under setting [3] is 71±4%.
